Results published in patent US10577322B2, “5-methoxytryptophan and its derivatives and uses thereof” (National Health Research Institutes, priority 2015, dated 2020).

Assays:
COX-2 = COX-2 immunohistochemistry in lung tissues of LPS-treated mice; format: in vivo; conditions: LPS 60 mg/kg; 12 h, 16 h and 24 h
Procedure: (§1) Prior to immunohistochemical detection of COX-2, iNOS, Ly6g, or cleaved caspase-3 in lung sections, sections were deparaffinized with xylene, progressively rehydrated through graded alcohols. Antigen sites were retrieved by heating the sections on slides in pH 8 EDTA antigen. retrieval (Trilogy; Cell Marque Corporation) in electric pressure cooker for 15 min. […] All antibodies described hereafter were diluted in blocking buffer. Sections were incubated at room temperature for 2 h with primary antibody and then washed in PBST. The sections were incubated with primary antibody amplifier quanta (Thermo) for 10 minutes. After rinsing with PBST, the sections were incubated with HRP Polymer Quanto (Thermo) for 10 minutes and washed three times with PBST. COX-2, iNOS, Ly6g and cleaved caspase-3 were visualized by the addition of DAB Quanto Chromogen: Substrate for 3 minutes. Tissues were also counterstained with hematoxylin.
(§2) Moreover, paraffin-embedded sections were prepared from lungs of mice injected with 60 mg/kg LPS with or without saline or 5-MTP at 12 h, 16 h and 24 h. COX-2 and inducible nitric oxide synthase (iNOS) protein levels in lung tissues were determined by immunohistochemistry by staining with anti-COX-2 and anti-iNOS antibodies, respectively. The results are shown in FIGS. 6A-6B, in which scale bars represent 100 μm. […]

iNOS = iNOS immunohistochemistry in lung tissues of LPS-treated mice; format: in vivo; conditions: LPS 60 mg/kg; 12 h, 16 h and 24 h
Procedure: as §1, §2

[1] = test system: proinflammatory cytokines; assay: Proinflammatory cytokines level in serum of LPS-treated mice (ELISA); format: in vivo
Procedure: C57BL/6 mice (6-8 wks old) were treated intraperitoneally with saline or with different concentrations of 5-MTP (23.4 or 100 mg/kg) for 30 min before intraperitoneal administration of LPS (60 mg/kg). Animals were monitored for survival and other clinical signs including ruffled fur, lethargy, diarrhea, and body weight loss. Some animals were sacrificed at different times after LPS injection. Blood samples, peritoneal exudates, lungs, and spleens were collected. All mouse experiments were approved by the institutional Animal Care and Use Committee, National Health Research Institutes.
Cytokine levels in the culture supernatants and serum were determined in microtiter plates (96-well) by a specific sandwich ELISA (Biosource) as previously described (Wu, J. Y. & Kuo, C. C. Pivotal role of ADP-ribosylation factor 6 in Toll-like receptor 9-mediated immune signaling. J Biol Chem 287, 4323-4334 (2012)) (Lee, G. L., et al. TLR 2 induces vascular smooth muscle cell migration through cAMP response element-binding protein-mediated interleukin-6 production. Arterioscler Thromb Vasc Biol 32, 2751-2760 (2012); hereinafter, Lee, G. L., et al.).
Mice were injected intraperitoneally with or without different concentrations of 5-MTP or saline for 30 min, followed by LPS administration for the indicated time. Proinflammatory cytokines level in serum was measured by ELISA. (n=6 per group).

Myeloperoxidase (MPO) = assay: MPO activity assay in lung tissues; format: in vivo, mice; conditions: 5-MTP 23.4 mg/kg, 16 h
Procedure: Myeloperoxidase (MPO) activity of lung tissue was assayed by Myeloperoxidase fluorometric detection kit (Enzo Life Sciences). In brief, lung tissue specimens were homogenized by Tissuelyser II (Qiagen) in tissue protein extraction buffer (pH 7.4 25 mM Tris buffer, 150 mM NaCl, 0.5% sodium deoxycholate, 2% NP-40 and 0.2% SDS), and centrifuged at 12,000×g for […] at 4° C. The supernatants were removed and the pellets were homogenized by Tissuelyser II for 30 seconds in 1 ml assay buffer with 0.5% hexadecyltrimethylammonium, and then samples were frozen, thawed three times, andcentrifuged at 8,000×g for 20 min. Collected supernatants and standard were mixed with reaction cocktail (50 μM detection reagent and 20 μM hydrogen peroxide in 1X assay buffer at room temperature in the dark. After 30 min incubation, MPO activity was determined by measuring the fluorescence intensity at excitation 530 nm and emission at 600 nm in a fluorescent plate reader.
In addition, MPO activity was determined in lung tissues of mice treated with saline or LPS in the presence or absence of 5-MTP (23.4 mg/kg) for 16 h (n=6 mice/group).

NF-κB p65 = assay: Phospho-p65 in peritoneal macrophage lysates (ELISA kit); format: cell-based, mouse; conditions: peritoneal macrophages, 5-MTP 50 μM
Procedure: Furthermore, after pretreating RAW264.7 cells with different concentrations of 5-MTP for 30 min, cells were stimulated with. LPS for 4 h. NF-κB p65, phospho-NF-κB p65 (p-p65) (Ser536) or β-actin was determined by immunoblotting with specific antibodies. Also, peritoneal macrophages were treated with LPS with or without 5-MTP (50 μM) for the indicated time. Phospho-p65 in the lysates was analyzed by an ELISA kit. The results are shown in FIG. 10D, in which the error bars denote mean ±SD (n=3). According to FIGS. 10C-10D, 5-MTP decreased LPS-induced phosphorylation of NF-κB p65 not only in RAW264.7 cells (FIG. 10C) but also in peritoneal macrophages (FIG. 10D).

p300 HAT [2] = assay: p300 HAT activity in peritoneal macrophages; format: cell-based, mouse; conditions: LPS, 5-MTP 50 μM
Procedure: p300 HAT activity in peritoneal macrophages treated with LPS in the presence or absence of 5-MTP (50 μM) for the indicated time was measured with an p300 HAT activity assay kit.

p300 HAT [3] = assay: p300 HAT activity in lung tissues of mice; format: in vivo; conditions: 8-24 h after LPS, 5-MTP 23.4 mg/kg
Procedure: In addition, p300 HAT activity in lung tissues of mice (n=6 mice/group) at 8-24 h after LPS infusion with or without 5-MTP(23.4 mg/kg) was determined by an assay kit.

RAW264.7 cells = assay: Cell viability by MTT assay; format: cell-based, mouse; conditions: 24 h
Procedure: Furthermore, RAW264.7 cells were treated with different concentrations of 5-MTP or 5-MTPE for 24 h. Cell viability was determined by MTT assay. In another experiment, after pretreating RAW264.7 cells with different concentrations of 5-MTP or 5-MTPE for 30 min, cells were stimulated with LPS for 24 h. IL-6 level in culture supernatants was measured by ELISA.

[4] = LPS-treated mice, dose- and time-dependent

SMILES: COc1ccc2[nH]cc(C[C@H](N)C(=O)O)c2c1 [5-MTP, 5-methoxytryptophan]
- COX-2 expression in lung tissues (COX-2): suppresses
- iNOS expression in lung tissues (iNOS): suppresses
- all the tested serum cytokines ([1]; 5-MTP at 23.4 mg/kg): significantly reduced
- all the tested serum cytokines ([1]; 5-MTP at 100 mg/kg): reduced the cytokines to the basal level
- rise of IL-12 ([1]; LPS-treated mice, data not shown): suppressed the rise
- blood level of IL-1β [1, 4]: abated the elevation
- blood level of IL-6 [1, 4]: abated the elevation
- blood level of INF-κ [1, 4]: abated the elevation
- blood level of TNF-α [1, 4]: abated the elevation
- lung MPO activity (Myeloperoxidase (MPO)): reduced neutrophil infiltration to the basal level
- LPS-induced phosphorylation of NF-κB p65 (NF-κB p65): decreased
- p300 HAT activation (p300 HAT [2]): significantly blocked p300 HAT activation up to 24 h
- p300 HAT activity in lung tissues (p300 HAT [3]): suppressed by 5-MTP

SMILES: COC(=O)C(N)Cc1c[nH]c2ccc(OC)cc12 (centres unmarked) [5-MTPE, ester-5-MTP]
- cell viability (MTT) (RAW264.7 cells): not cell viability
